One data set has as its system Phakopsora pachyrhizi. In words: Phakopsora pachyrhizi / soybean / leaf disc preventative (Asian soybean rust). Format: in vivo. Particulars: foliar, 200 ppm in the applied formulation, soybean leaf disks, inoculated one day after application, assessed 12 to 14 days after application, read-out: disease control compared to untreated control leaf disks. As for the experimental part: (§1) Leaf disks or leaf segments of various plant species are cut from plants grown in a greenhouse. The cut leaf disks or segments are placed in multiwell plates (24-well format) onto water agar. The leaf disks are sprayed with a test solution before (preventative) or after (curative) inoculation. Compounds to be tested are prepared as DMSO solutions (max. 10 mg/ml) which are diluted to the appropriate concentration with 0.025% Tween20 just before spraying. The inoculated leaf disks or segments are incubated under defined conditions (temperature, relative humidity, light, etc.) according to the respective test system. A single evaluation of disease level is carried out 3 to 14 days after inoculation, depending on the pathosystem. Percent disease control relative to the untreated check leaf disks or segments is then calculated.
Soybean leaf disks are placed on water agar in multiwell plates (24-well format) and sprayed with the formulated test compound diluted in water. One day after application leaf discs are inoculated by spraying a spore suspension on the lower leaf surface. After an incubation period in a climate cabinet of 24-36 hours in darkness at 20° C. and 75% rh leaf disc are kept at 20° C. with 12 h light/day and 75% rh. The activity of a compound is assessed as percent disease control compared to untreated when an appropriate level of disease damage appears in untreated check leaf disks (12 to 14 days after application).
The following compounds at 200 ppm in the applied formulation give at least 80% disease control in this test when compared to untreated control leaf disks under the same conditions, which show extensive disease development.

For data set [1], the system named is Glomerella lagenarium (Colletotrichum lagenarium). As to the kind of experiment: Glomerella lagenarium (Colletotrichum lagenarium) liquid culture / cucumber / preventative (anthracnose). Format: cell-based. The conditions noted are these: Colletotrichum orbiculare; 20 ppm in the applied formulation; liquid culture in PDB, 24° C.; 3 to 4 days after application; read-out: disease control compared to untreated control (inhibition of growth measured photometrically). On the procedure: Mycelia fragments or conidia suspensions of a fungus prepared either freshly from liquid cultures of the fungus or from cryogenic storage, are directly mixed into nutrient broth. DMSO solutions of the test compound (max. 10 mg/ml) are diluted with 0.025% Tween20 by a factor of 50 and 10 μl of this solution is pipetted into a microtiter plate (96-well format). The nutrient broth containing the fungal spores/mycelia fragments is then added to give an end concentration of the tested compound. The test plates are incubated in the dark at 24° C. and 96% relative humidity. The inhibition of fungal growth is determined photometrically after 2 to 7 days, depending on the pathosystem, and percent antifungal activity relative to the untreated check is calculated.
Conidia of the fungus from cryogenic storage are directly mixed into nutrient broth (PDB—potato dextrose broth). After placing a (DMSO) solution of test compound into a microtiter plate (96-well format), the nutrient broth containing the fungal spores is added. The test plates are incubated at 24° C. and the inhibition of growth is measured photometrically 3 to 4 days after application.
The following compounds at 20 ppm in the applied formulation give at least 80% disease control in this test when compared to untreated control under the same conditions, which show extensive disease development.

Data set [2] has as its system Puccinia recondita f. Sp. Tritici. As to the kind of experiment: Puccinia recondita f. sp. tritici / wheat / leaf disc preventative (brown rust). The format is in vivo. The conditions noted are these: foliar, 200 ppm in the applied formulation, wheat leaf segments cv. Kanzler, inoculated 1 day after application, assessed 7 to 9 days after application, read-out: disease control compared to untreated control leaf disks. On the procedure:
as §1, with “calculated. Wheat leaf segments cv. Kanzler were placed on agar in multiwell plates (24-well format) and sprayed with the formulated test compound diluted in water. The leaf disks were inoculated with a spore suspension of the fungus 1 day after application. The inoculated leaf segments were incubated at 19° C. and 75% relative humidity (rh) under a light regime of 12 hours light/12 hours darkness in a climate cabinet and the activity of a compound was assessed as percent disease control compared to untreated when an appropriate level of disease damage appears in untreated check leaf segments (7 to 9 days after application). The following compounds at 200 ppm in the applied formulation give at least 80% disease control in this test when compared to untreated control leaf disks under the same conditions, which show extensive disease development.” for “calculated.”

The melting point is the temperature of the solid-liquid transition. The inhibition is how much of the control response was suppressed. Molecule `Cc1ccc(C)c([S+]([O-])c2ccc(-c3noc(C(F)(F)F)n3)cc2)c1` (centres unmarked) [Compound 2.7, 3-[4-(2,5-dimethylphenyl)sulfinyl-phenyl]-5-(trifluoromethyl)-1,2,4-oxadiazole] registered a melting point of 103 to 109 °C. Besides, in the data set with Phakopsora pachyrhizi, the pest or weed control at 200 ppm is no less than 80%. The inhibition at 20 ppm in data set [1] is no less than 80%. The pest or weed control at 200 ppm in data set [2] is no less than 80%.

With `Cc1cc(-c2noc(C(F)(F)F)n2)ccc1[S+]([O-])c1ccccc1` (centres unmarked) [Compound 2.11, 3-[4-(benzenesulfinyl)-3-methyl-phenyl]-5-(trifluoromethyl)-1,2,4-oxadiazole], the pest or weed control at 200 ppm (in the data set with Phakopsora pachyrhizi; in data set [2]) was no less than 80% in each case. The inhibition at 20 ppm in data set [1] was no less than 80%.

The molecule `[O-][S+](c1ccc(-c2noc(C(F)(F)F)n2)cc1)c1ccc(C(F)(F)F)cc1` (centres unmarked) [Compound 2.14, 5-(trifluoromethyl)-3-[4-[4-(trifluoromethyl)phenyl]sulfinylphenyl]-1,2,4-oxadiazole] displayed a melting point of 94 to 100 °C. In addition, the inhibition at 20 ppm in data set [1] is no less than 80%. Besides, the pest or weed control at 200 ppm in data set [2] was no less than 80%.

Turning to `[O-][S+](c1ccc(-c2noc(C(F)(F)F)n2)cc1)c1c(F)cccc1F` (centres unmarked) [Compound 2.16, 3-[4-(2,6-difluorophenyl)sulfinyl-phenyl]-5-(trifluoromethyl)-1,2,4-oxadiazole], the melting point was in the range of 148 to 155 °C. For the same molecule, the pest or weed control at 200 ppm in the data set on Phakopsora pachyrhizi is no less than 80%. Moreover, the pest or weed control at 200 ppm in data set [2] was no less than 80%.

Molecule `[O-][S+](c1ccc(-c2noc(C(F)(F)F)n2)cc1)c1ccccc1F` (centres unmarked) [Compound 2.18, 3-[4-(2-fluorophenyl)sulfinylphenyl]-5-(trifluoromethyl)-1,2,4-oxadiazole] had a melting point of 116 to 121 °C. In addition, the pest or weed control at 200 ppm in the data set with Phakopsora pachyrhizi is no less than 80%. In addition, in data set [1], the inhibition at 20 ppm was no less than 80%. Besides, the pest or weed control at 200 ppm in data set [2] is no less than 80%.

The molecule `[O-][S+](c1ccc(-c2noc(C(F)(F)F)n2)cc1)c1cccc(F)c1` (centres unmarked) [Compound 2.20, 3-[4-(3-fluorophenyl)sulfinylphenyl]-5-(trifluoromethyl)-1,2,4-oxadiazole] gave a melting point of 103 to 111 °C. In addition, in the data set on Phakopsora pachyrhizi, the pest or weed control at 200 ppm is no less than 80%. Besides, in data set [1], the inhibition at 20 ppm is no less than 80%. Moreover, the pest or weed control at 200 ppm in data set [2] was no less than 80%.

For the molecule `O=S(=O)(c1ccc(F)cc1)c1ccc(-c2noc(C(F)(F)F)n2)cc1` [Compound 3.9, 3-[4-(4-fluorophenyl)sulfonylphenyl]-5-(trifluoromethyl)-1,2,4-oxadiazole], the melting point lay in the range of 144 to 149 °C. Also, the pest or weed control at 200 ppm in the data set with Phakopsora pachyrhizi was no less than 80%. The pest or weed control at 200 ppm in data set [2] is no less than 80%.

Molecule `COc1ccccc1S(=O)(=O)c1ccc(-c2noc(C(F)(F)F)n2)cc1` [Compound 3.10, 3-[4-(2-methoxyphenyl)sulfonyl-phenyl]-5-(trifluoromethyl)-1,2,4-oxadiazole] returned a melting point of 119 to 123 °C. Also, the pest or weed control at 200 ppm in data set [2] is no less than 80%.

`Cc1ccccc1S(=O)(=O)c1ccc(-c2noc(C(F)(F)F)n2)cc1` [Compound 3.17, 3-[4-(o-tolylsulfonyl)phenyl]-5-(trifluoromethyl)-1,2,4-oxadiazole] showed a melting point of 109 to 115 °C. In data set [1], the inhibition at 20 ppm is no less than 80%. For the same molecule, the pest or weed control at 200 ppm in data set [2] was no less than 80%.

`Cc1ccccc1S(=O)(=O)c1ccc(-c2noc(C(F)(F)F)n2)cn1` [Compound 3.18, 3-[6-(o-tolylsulfonyl)-3-pyridyl]-5-(trifluoromethyl)-1,2,4-oxadiazole] displayed a melting point of 66 to 68 °C. For the same molecule, in data set [1], the inhibition at 20 ppm is no less than 80%. Further, the pest or weed control at 200 ppm in data set [2] is no less than 80%.

The molecule `O=S(=O)(c1ccc(-c2noc(C(F)(F)F)n2)cn1)c1ccccc1F` [Compound 3.19, 3-[6-(2-fluorophenyl)sulfonyl-3-pyridyl]-5-(trifluoromethyl)-1,2,4-oxadiazole] came in with a melting point of 145 to 151 °C. Besides, the inhibition at 20 ppm in data set [1] was no less than 80%. Also, the pest or weed control at 200 ppm in data set [2] was no less than 80%.

The values are drawn from patent US20180319753A1, “MICROBIOCIDAL OXADIAZOLE DERIVATIVES” (SYNGENTA PARTICIPATIONS AG, priority 2015, published 2018).
